The values below are quoted from earlier work in US20070021304A1, “Non-salt glyphosate herbicide composition and method for preparing the same” (Sinon Corporation, priority 2005, published 2007).

The conditions of the data set: pH 1.9, 20° C.

`O=C(O)CNCP(=O)(O)O` [Glyphosate]: the water solubility entry is listed as “approximately 10.5 g/L”.
